In the NIST ThermoML archive (doi:10.1021/acs.jced.8b00067):
Several values for one entry are separate records, joined by “and”; a condition that tells them apart may be missing. Equal entries are not always repeated.

Legend:
[1] = 101.3 kPa, Liquid, Vibrating tube method
[2] = xn = mol fraction of the nth substance listed; conditions: 101.3 kPa, Liquid, Vibrating tube method

ClCCCl [1,2-dichloroethane]
[1]
Conditions | mass density
288.15 K | 1260.35 kg/m3
298.15 K | 1245.75 kg/m3 and 1245.76 kg/m3
308.15 K | 1231.16 kg/m3
318.15 K | 1216.56 kg/m3

ClCCCl [1,2-dichloroethane] + C1COCCO1
mass density [kg/m3], [2]
Conditions | 288.15 K | 298.15 K | 308.15 K | 318.15 K
x2 = 0 | 1260.35 | 1245.75 | 1231.16 | 1216.56
x2 = 0.05 | 1247.73 | 1233.53 | 1219.2 | 1204.74
x2 = 0.15 | 1223.15 | 1209.44 | 1195.6 | 1181.63
x2 = 0.25 | 1199.18 | 1185.91 | 1172.52 | 1159.01
x2 = 0.35 | 1175.98 | 1163.09 | 1150.11 | 1137.01
x2 = 0.45 | 1153.2 | 1140.69 | 1128.08 | 1115.36
x2 = 0.5 | 1142.13 | 1129.79 | 1117.34 | 1104.79
x2 = 0.55 | 1131.22 | 1119.02 | 1106.74 | 1094.34
x2 = 0.65 | 1109.63 | 1097.72 | 1085.72 | 1073.62
x2 = 0.75 | 1088.81 | 1077.13 | 1065.38 | 1053.55
x2 = 0.85 | 1068.59 | 1057.12 | 1045.59 | 1033.98
x2 = 0.95 | 1048.8 | 1037.49 | 1026.13 | 1014.72

ClCCCl [1,2-dichloroethane] + CC(C)O
mass density [kg/m3], [2]
Conditions | 288.15 K | 298.15 K | 308.15 K | 318.15 K
x2 = 0 | 1260.35 | 1245.75 | 1231.16 | 1216.56
x2 = 0.05 | 1235.77 | 1221.42 | 1206.94 | 1192.32
x2 = 0.15 | 1188.35 | 1174.26 | 1160 | 1145.58
x2 = 0.25 | 1141.45 | 1127.77 | 1113.89 | 1099.81
x2 = 0.35 | 1094.84 | 1081.66 | 1068.25 | 1054.61
x2 = 0.45 | 1048.69 | 1036.08 | 1023.22 | 1010.09
x2 = 0.5 | 1025.43 | 1013.12 | 1000.56 | 987.72
x2 = 0.55 | 1001.94 | 989.96 | 977.71 | 965.17
x2 = 0.65 | 955.61 | 944.31 | 932.73 | 920.85
x2 = 0.75 | 908.94 | 898.38 | 887.54 | 876.36
x2 = 0.849 | 862.18 | 852.45 | 842.41 | 832.03
x2 = 0.949 | 814.66 | 805.84 | 796.72 | 787.26
x2 = 0.95 | 814.18 | 805.36 | 796.25 | 786.79

ClCCCl [1,2-dichloroethane] + CCCO
mass density, [2]
Conditions | 288.15 K | 298.15 K | 308.15 K | 318.15 K
x2 = 0 | 1260.35 kg/m3 | 1245.75 kg/m3 | 1231.16 kg/m3 | 1216.56 kg/m3
x2 = 0.026 | 1248.39 kg/m3 | 1234.01 kg/m3 | 1219.5 kg/m3 | 1204.86 kg/m3
x2 = 0.05 | 1237.53 kg/m3 and 1237.37 kg/m3 | 1223.22 kg/m3 and 1223.08 kg/m3 | 1208.79 kg/m3 and 1208.64 kg/m3 | 1194.22 kg/m3 and 1194.08 kg/m3
x2 = 0.1 | 1215.38 kg/m3 | 1201.26 kg/m3 | 1187.01 kg/m3 | 1172.6 kg/m3
x2 = 0.122 | 1205.69 kg/m3 | 1191.67 kg/m3 | 1177.5 kg/m3 | 1163.18 kg/m3
x2 = 0.149 | 1193.33 kg/m3 | 1179.47 kg/m3 | 1165.44 kg/m3 | 1151.24 kg/m3
x2 = 0.25 | 1149.08 kg/m3 | 1135.78 kg/m3 | 1122.28 kg/m3 | 1108.59 kg/m3
x2 = 0.35 | 1104.87 kg/m3 | 1092.18 kg/m3 | 1079.29 kg/m3 | 1066.19 kg/m3
x2 = 0.45 | 1060.3 kg/m3 | 1048.27 kg/m3 | 1036.04 kg/m3 | 1023.57 kg/m3
x2 = 0.55 | 1015.43 kg/m3 | 1004.09 kg/m3 | 992.55 kg/m3 | 980.78 kg/m3
x2 = 0.645 | 972.3 kg/m3 | 961.66 kg/m3 | 950.81 kg/m3 | 939.73 kg/m3
x2 = 0.75 | 924.58 kg/m3 | 914.71 kg/m3 | 904.65 kg/m3 | 894.38 kg/m3
x2 = 0.85 | 878.59 kg/m3 | 869.49 kg/m3 | 860.21 kg/m3 | 850.73 kg/m3
x2 = 0.899 | 855.66 kg/m3 | 846.93 kg/m3 | 838.05 kg/m3 | 828.97 kg/m3
x2 = 0.95 | 831.69 kg/m3 | 823.36 kg/m3 | 814.89 kg/m3 | 806.24 kg/m3
x2 = 0.974 | 820.39 kg/m3 | 812.24 kg/m3 | 803.95 kg/m3 | 795.49 kg/m3
x2 = 0.975 | 819.73 kg/m3 | 811.6 kg/m3 | 803.33 kg/m3 | 794.89 kg/m3

C1COCCO1 [1,4-dioxane]
[1]
Conditions | mass density [kg/m3]
288.15 K | 1039.12
298.15 K | 1027.84
308.15 K | 1016.57
318.15 K | 1005.29

C1COCCO1 [1,4-dioxane] + CC(C)O
mass density [kg/m3], [2]
Conditions | 288.15 K | 298.15 K | 308.15 K | 318.15 K
x1 = 0.05 | 802.95 | 794.39 | 785.56 | 776.41
x1 = 0.15 | 829.25 | 820.23 | 810.98 | 801.46
x1 = 0.25 | 855.23 | 845.83 | 836.22 | 826.38
x1 = 0.35 | 880.71 | 870.97 | 861.05 | 850.93
x1 = 0.449 | 905.45 | 895.43 | 885.24 | 874.87
x1 = 0.5 | 918.21 | 908.04 | 897.73 | 887.25
x1 = 0.55 | 930.47 | 920.18 | 909.74 | 899.16
x1 = 0.651 | 955.14 | 944.61 | 933.97 | 923.2
x1 = 0.75 | 979.12 | 968.37 | 957.54 | 946.6
x1 = 0.85 | 1003.42 | 992.5 | 981.49 | 970.39
x1 = 0.95 | 1027.3 | 1016.17 | 1004.99 | 993.74
x1 = 1 | 1039.12 | 1027.84 | 1016.57 | 1005.29

C1COCCO1 [1,4-dioxane] + CCCO
mass density, [2]
Conditions | 288.15 K | 298.15 K | 308.15 K | 318.15 K
x1 = 0.05 | 820.78 kg/m3 | 812.62 kg/m3 | 804.33 kg/m3 | 795.88 kg/m3
x1 = 0.15 | 846.12 kg/m3 | 837.54 kg/m3 | 828.82 kg/m3 | 819.95 kg/m3
x1 = 0.249 | 870.65 kg/m3 | 861.62 kg/m3 | 852.49 kg/m3 | 843.22 kg/m3
x1 = 0.35 | 894.72 kg/m3 and 894.75 kg/m3 | 885.38 kg/m3 and 885.41 kg/m3 | 875.91 kg/m3 and 875.94 kg/m3 | 866.3 kg/m3 and 866.33 kg/m3
x1 = 0.45 | 918.23 kg/m3 | 908.54 kg/m3 | 898.73 kg/m3 | 888.78 kg/m3
x1 = 0.496 | 928.74 kg/m3 | 918.89 kg/m3 | 908.94 kg/m3 | 898.85 kg/m3
x1 = 0.55 | 941.07 kg/m3 and 941.11 kg/m3 | 931.06 kg/m3 and 931.09 kg/m3 | 920.95 kg/m3 and 920.97 kg/m3 | 910.71 kg/m3 and 910.73 kg/m3
x1 = 0.65 | 963.51 kg/m3 | 953.2 kg/m3 | 942.79 kg/m3 | 932.28 kg/m3
x1 = 0.75 | 985.54 kg/m3 and 985.58 kg/m3 | 974.94 kg/m3 and 974.98 kg/m3 | 964.26 kg/m3 and 964.29 kg/m3 | 953.5 kg/m3 and 953.51 kg/m3
x1 = 0.849 | 1006.97 kg/m3 | 996.12 kg/m3 | 985.2 kg/m3 | 974.19 kg/m3
x1 = 0.948 | 1028.13 kg/m3 | 1017.05 kg/m3 | 1005.9 kg/m3 | 994.68 kg/m3
x1 = 0.95 | 1028.45 kg/m3 | 1017.36 kg/m3 | 1006.21 kg/m3 | 995 kg/m3
x1 = 1 | 1039.12 kg/m3 | 1027.84 kg/m3 | 1016.57 kg/m3 | 1005.29 kg/m3

C1COCCO1 [1,4-dioxane] + ClCCCl
[2], x1 = 1
Conditions | mass density [kg/m3]
288.15 K | 1039.12
298.15 K | 1027.84
308.15 K | 1016.57
318.15 K | 1005.29

CCCO [propan-1-ol]
[1]
Conditions | mass density [kg/m3]
288.15 K | 807.86
298.15 K | 799.78
308.15 K | 791.71
318.15 K | 783.64

CCCO [propan-1-ol] + C1COCCO1
[2], x2 = 0
Conditions | mass density [kg/m3]
288.15 K | 807.86
298.15 K | 799.78
308.15 K | 791.71
318.15 K | 783.64

CCCO [propan-1-ol] + ClCCCl
[2], x1 = 1
Conditions | mass density [kg/m3]
288.15 K | 807.86
298.15 K | 799.78
308.15 K | 791.71
318.15 K | 783.64

CC(C)O [propan-2-ol]
[1]
Conditions | mass density [kg/m3]
288.15 K | 789.68
298.15 K | 781.08
308.15 K | 772.48
318.15 K | 763.88

CC(C)O [propan-2-ol] + C1COCCO1
[2], x2 = 0
Conditions | mass density [kg/m3]
288.15 K | 789.68
298.15 K | 781.08
308.15 K | 772.48
318.15 K | 763.88

CC(C)O [propan-2-ol] + ClCCCl
[2], x1 = 1
Conditions | mass density [kg/m3]
288.15 K | 789.68
298.15 K | 781.08
308.15 K | 772.48
318.15 K | 763.88
